The test system of assay [1] is C57BL/6 mice. The following applies: stated as known; cited from earlier work.
For the next assay, the system named is Caenorhabditis elegans. Put plainly: Lifespan of N2 wildtype C. elegans on NGM treatment plates containing compound. The format is in vivo. Set-up: mean lifespan: unit not given here. The following applies: for % increase (mean lifespan): vs DMSO; for effect on C. elegans lifespan: FIGS. 1A-1C, result in words. The procedure:
The anti-aging effects of MJX001-MJX005 were tested in the nematode Caenorhabditis elegans. Worms of the N2 wildtype strain of C. elegans were age-synchronized by performing either a timed egg lay or an egg preparation (mix <100 gravid worms in 70 μl M9 buffer, 25 μl bleach and 5 μl 10 N NaOH). Once the worms reached day 1 of adulthood, they were picked onto NGM treatment plates containing 1.5% dimethyl sulfoxide (DMSO; Sigma D8418), 49.5 μM 5-fluoro-2′-deoxyuridine (FUDR, Sigma F0503), and either […] (Sigma K401) or one of the MJX series test compounds. All plates were adjusted to pH 6.0 (i.e., the same pH as the control plates) if necessary by the addition of NaOH. Once dry, the plates were seeded with OP50 E. coli as the C. elegans food source. […] Worms were moved to new plates every 4 days. All worms were maintained in a single humidified, temperature-controlled incubator at 20° C. Lifespan curves were generated and statistical analyses performed.

The test system of the next assay is mTOR signaling. Kind of assay: Western blot of mTOR signaling in H9C2 rat cardiomyocytes. Format: cell-based. The following applies: H9C2 cells; for inhibition of mTOR signaling, dose-response: FIG. 2D; for time course of inhibition of mTOR signaling: 15 min to 8 hr, FIGS. 2C, 2E, 2F. On the procedure: (§1) H9C2 rat cardiomyocyte cells were grown in DMEM media (ATCC #30-2002) supplemented with 10% FBS. Stock solutions of MJX series compounds were prepared in DMSO, while the stock solution of α-ketobutyrate was prepared in dH2O. Cells were seeded in the afternoon at 70-80% confluency and the next morning treated with the indicated concentrations of compounds for the indicated times. Cells were then washed with ice-cold PBS and immediately lysed on ice with RIPA buffer. Lysates were clarified at 18,000 g at 4° C., the supernatants transferred to new tubes, mixed with […] of 5×SDS-PAGE loading buffer, and heated for 10 minutes at 70° C. Lysates were then separated by SDS-PAGE using 4-12% Bis-Tris gels (Life Technologies) and transferred to PVDF membranes (Millipore) for western blotting analysis. All antibodies were purchased from Cell Signaling.
(Immunoblotting shows a protein as a band on a membrane.)

The next assay concerns AMPK signaling pathway. Kind of assay: Western blot of AMPK signaling in H9C2 rat cardiomyocytes. The following applies: H9C2 cells; for activation of AMPK, dose-response: FIG. 2D; for time course of AMPK activation: 15 min to 8 hr, FIGS. 2C, 2E; for time course of AMPK activation / activation of AMPK signaling pathway (phosphorylation of AMPK targets ACC (S79) and ULK1 (S555)): 2F; for activation of AMPK signaling pathway (phosphorylation of AMPK targets ACC (S79) and ULK1 (S555)): western blot, FIGS. 2A, 2B. The format is cell-based. On the procedure:
as §1

The next assay has as its system mTORC2. Kind of assay: Western blot of mTORC2 signaling in H9C2 rat cardiomyocytes. The following applies: H9C2 cells, FIGS. 2C; for mTORC2 activity (phosphorylation of Akt (S473)): 2F. The format is cell-based. On the procedure:
as §1

The next assay deals with mTORC1. Put plainly: Western blot of mTORC1 signaling in H9C2 rat cardiomyocytes. Format: cell-based. The following applies: H9C2 cells, western blot, FIGS. 2A, 2B, 2C, 2F. The procedure: as §1
Another assay has as its system H9C2 Cells. Kind of assay: [U-13C6]glucose tracing of metabolites in H9C2 cells (LC-MS). The following applies: 24 h, FIG. 4. The format is cell-based, rat. On the procedure: To evaluate the metabolic pathways in use, H9C2 Cells were cultured with designated compounds and medium containing [U-^13C6]glucose for 24 h. Metabolites were extracted for LC-MS detection.

Assay [2] deals with C57BL/6 mice. Put plainly: Hair regrowth in shaved C57BL/6 mice, topical application. The format is in vivo, mouse. On the procedure:
The effects of the compounds on mouse models were evaluated. […] Mouse dorsal hair was shaved by trimmer on week 7 and MJX002 was dissolved in Transdermal Gel at 16 mM and applied on the dorsal skin every other day. Mice were monitored for the appearance of skin pigmentation, which signals the initiation of anagen. […] (FIG. 7)

Setting [3] is: 4 mM, FIG. 1A experiment, DMSO control 11.7.
[4] abbreviates: 4 mM, FIG. 1B experiment, DMSO control 15.3.
The mark [5] stands for this setting: 4 mM, FIG. 1C experiment, DMSO control 14.8.
The mark [6] stands for this setting: 4 mM, FIG. 8 experiment, DMSO control 15.3.
The mark [7] stands for this setting: after only 15 minutes treatment, FIG. 2C.
Setting [8] is: 1 mM, FIG. 1C experiment, DMSO control 14.8.
Where [9] appears, read: 2 mM, FIG. 1C experiment, DMSO control 14.8.

This is an account of results in US11524948B2, “Prodrugs of alpha-ketoglutarate, alpha-ketobutyrate, alpha-ketoisovalerate, and alpha-ketoisohexanoate, and uses thereof” (The Regents of the University of California, priority 2018, dated 2022).

“Also recorded” adds a separate entry of the source.

Take “α-ketobutyric acid (2-oxobutanoic acid) [aKB, reference compound]”: the “hair loss in old C57BL/6 mice” value in the assay on C57BL/6 mice [1] is listed as “prevents hair loss”. The “hair regrowth in mice” value in the assay with C57BL/6 mice [1] was “stimulates hair regrowth”. In addition, the mean lifespan in the assay with Caenorhabditis elegans (setting [3]) was found to be 17.7; in the assay with Caenorhabditis elegans (setting [4]) it was 20.4; in the assay on Caenorhabditis elegans (setting [5]), 19.7; with Caenorhabditis elegans (setting [6]), 19.1. For the same molecule, the “% increase (mean lifespan)” value is reported as 51.0% in the assay with Caenorhabditis elegans (4 mM, FIG. 1A experiment); 33.3% in the assay with Caenorhabditis elegans (4 mM, FIG. 1B experiment); 33.3% with Caenorhabditis elegans (4 mM, FIG. 1C experiment); 24.6% in the assay on Caenorhabditis elegans (4 mM, FIG. 8 experiment).
Turning to `C/C=C1\OC(CC)(C(=O)OCC)OC1=O` (stereo not drawn) [MJX005], the “inhibition of mTOR signaling, dose-response” value in the assay with mTOR signaling (0.8 mM or lower) is listed as “no significant effect”; in the assay with mTOR signaling (1.6 mM) it was “modest effect”; with mTOR signaling (3.2 mM) it was “strong effect”. Besides, the “time course of inhibition of mTOR signaling” value with mTOR signaling is “greatly diminished by 2 hr and largely absent at 4 hr and 8 hr; also recorded: only inhibited mTOR signaling transiently”. Further, the “inhibition of mTOR signaling” value in the assay with mTOR signaling (setting [7]) is on record as “inhibition of mTOR signaling”. Moreover, the mean lifespan with Caenorhabditis elegans (2 mM, FIG. 1B experiment, DMSO control 15.3) is 18.2; with Caenorhabditis elegans (setting [4]), 19.6. Further, the “% increase (mean lifespan)” value is 19.1% with Caenorhabditis elegans (2 mM, FIG. 1B experiment) and 27.7% in the assay on Caenorhabditis elegans (4 mM, FIG. 1B experiment). Besides, the “effect on C. elegans lifespan” value in the assay on Caenorhabditis elegans is “dose-dependent increases in lifespan”. Moreover, the “activation of AMPK compared with α-ketobutyrate” value in the assay on AMPK signaling pathway is given as “more potent activation of AMPK than α-ketobutyrate”. Also, the “activation of AMPK, dose-response” value with AMPK signaling pathway (0.8 mM or lower) is on record as “no significant effect”; with AMPK signaling pathway (1.6 mM), “modest effect”; in the assay with AMPK signaling pathway (3.2 mM), “strong effect”. Also, the “time course of AMPK activation” value in the assay with AMPK signaling pathway was “greatly diminished by 2 hr and largely absent at 4 hr and 8 hr”. In the assay with AMPK signaling pathway (setting [7]), the “activation of AMPK” value is given as “strong activation of AMPK”. For the same molecule, the “activation of AMPK signaling pathway (phosphorylation of AMPK targets ACC (S79) and ULK1 (S555))” value (“activation of AMPK signaling pathway” for short) in the assay on AMPK signaling pathway is “activate the AMPK pathway”. Further, the “time course of inhibition of mTORC2 (decreased phosphorylation of Akt (S473))” value in the assay with mTORC2 (2E) was “strongest after just 15 and 30 minutes treatment, but recovered to normal levels by 2 hr and beyond”. The “mTORC2 activity (phosphorylation of Akt (S473))” value in the assay with mTORC2 was “inhibits both mTORC1 and mTORC2 activity”. The “mTORC1 signaling (phosphorylation of mTORC1 targets S6K (T389), 4E-BP1 (S65), ULK1 (S757))” value (shortened to “mTORC1 signaling”) with mTORC1 was “inhibited mTORC1 signaling; also recorded: inhibits both mTORC1 and mTORC2 activity”.
Consider `C/C=C1\OC(C)OC1=O` (stereo not drawn) [MJX003], for which the figures for the mean lifespan in the assay with Caenorhabditis elegans (setting [8]), in the assay with Caenorhabditis elegans (setting [9]) and in the assay with Caenorhabditis elegans (setting [5]) were 14.8, 12.5 and 12.9, respectively. Moreover, the “% increase (mean lifespan)” value with Caenorhabditis elegans (1 mM, FIG. 1C experiment) is given as −0.2%; in the assay with Caenorhabditis elegans (2 mM, FIG. 1C experiment), −15.3%; in the assay with Caenorhabditis elegans (4 mM, FIG. 1C experiment) it was −12.7%. Moreover, the “effect on C. elegans lifespan” value in the assay on Caenorhabditis elegans is given as “decreased C. elegans lifespan”. Further, the “phosphorylation of T172 in AMPK” value with AMPK signaling pathway (FIG. 2A) is reported as “Increased phosphorylation”. In addition, the “activation of AMPK signaling pathway” value with AMPK signaling pathway was “activate the AMPK signaling pathway”. The “mTORC1 signaling” value in the assay on mTORC1 was “no significant effect”.
Turning to `CCOC(=O)C(CC)(OCC)OC(C)=O` (stereo not drawn) [MJX002], the “M2 citrate using [U-13C6]glucose as a tracer” value with H9C2 Cells is given as “decreased M2 citrate”. Besides, the hair regrowth entry in the assay on C57BL/6 mice [2] (6 week old C57BL/6 mice, 16 mM in Transdermal Gel on dorsal skin every other day) is listed as “stimulates hair regrowth”. The “skin pigmentation and hair growth” value in the assay on C57BL/6 mice [2] (C57BL/6 mice, 16 mM topical every other day, after 40 days, FIG. 7) was “accelerated pigmentation and hair growth”. Further, the mean lifespan in the assay on Caenorhabditis elegans (100 μM, FIG. 1A experiment, DMSO control 11.7) is listed as 11.9; in the assay with Caenorhabditis elegans (300 μM, FIG. 1A experiment, DMSO control 11.7), 13.2; in the assay with Caenorhabditis elegans (1 mM, FIG. 1A experiment, DMSO control 11.7) it was 12.2; with Caenorhabditis elegans (setting [3]) it was 16.4. Further, the “% increase (mean lifespan)” value in the assay with Caenorhabditis elegans (100 μM, FIG. 1A experiment) was 1.9%; in the assay on Caenorhabditis elegans (300 μM, FIG. 1A experiment), 13.0%; with Caenorhabditis elegans (1 mM, FIG. 1A experiment) it was 4.2%; in the assay with Caenorhabditis elegans (4 mM, FIG. 1A experiment), 40.0%. Also, the “effect on C. elegans lifespan” value with Caenorhabditis elegans is on record as “dose-dependent increases in lifespan”. Moreover, in the assay on AMPK signaling pathway, the “activation of AMPK signaling pathway” value is “activate the AMPK signaling pathway”. In the assay with mTORC1, the “mTORC1 signaling” value is given as “no significant effect”.
As for `C/C=C1\OC(CCC(=O)OCC)(C(=O)OCC)OC1=O` (stereo not drawn) [MJX006], in the assay on mTOR signaling, the “time course of inhibition of mTOR signaling” value was “exhibited similar kinetics; also recorded: only inhibited mTOR signaling transiently”. Also, the mean lifespan in the assay with Caenorhabditis elegans (1 mM, FIG. 8 experiment, DMSO control 15.3) was 16.2; in the assay on Caenorhabditis elegans (2 mM, FIG. 8 experiment, DMSO control 15.3), 19.0; in the assay with Caenorhabditis elegans (setting [6]), 17.4. The “% increase (mean lifespan)” value was 6.3% in the assay with Caenorhabditis elegans (1 mM, FIG. 8 experiment); 24.2% in the assay on Caenorhabditis elegans (2 mM, FIG. 8 experiment); 13.9% in the assay on Caenorhabditis elegans (4 mM, FIG. 8 experiment). Also, in the assay with Caenorhabditis elegans (all three tested doses (1, 2, 4 mM), FIG. 8, result in words), the “N2 C. elegans lifespan” value is “extended significantly”. The “time course of AMPK activation” value in the assay on AMPK signaling pathway is “highest at 15 and 30 minutes, is weaker but still evident at 1 hour, and has largely returned to baseline by 2 hours”. For the same molecule, the “activation of AMPK signaling pathway” value in the assay with AMPK signaling pathway was “rapidly promote AMPK activity”. Also, in the assay on mTORC2, the “mTORC2 activity (phosphorylation of Akt (S473))” value was “inhibit mTORC1 and mTORC2 signaling”. For the same molecule, in the assay with mTORC1, the “mTORC1 signaling” value was “inhibit mTORC1 and mTORC2 signaling”.
As for `C/C=C(\OC(C)=O)C(=O)OCC` [MJX001], the mean lifespan in the assay with Caenorhabditis elegans (setting [8]) turned out to be 12.9; in the assay on Caenorhabditis elegans (setting [9]) it was 11.5; in the assay on Caenorhabditis elegans (setting [5]) it was 11.1. Moreover, the “% increase (mean lifespan)” value is given as −12.9% in the assay with Caenorhabditis elegans (1 mM, FIG. 1C experiment); −22.4% in the assay on Caenorhabditis elegans (2 mM, FIG. 1C experiment); −24.8% in the assay with Caenorhabditis elegans (4 mM, FIG. 1C experiment). Moreover, in the assay with Caenorhabditis elegans, the “effect on C. elegans lifespan” value is reported as “decreased C. elegans lifespan”. Besides, the “activation of AMPK signaling pathway” value with AMPK signaling pathway is listed as “activate the AMPK signaling pathway”. Further, in the assay on mTORC1, the “mTORC1 signaling” value was “no significant effect”.
